This is an account of results in patent publication EP4702986A1, “POLYPEPTIDE AND USE THEREOF” (Biocells (Beijing) Biotech Co., Ltd., priority 2023, dated 2024).

Data set [1] deals with T1, human ETA receptor (Homo sapiens, UniProt P25101).
T1 construct: expressed in transfected cells; host or cells: 293T-17 cells, transient transfection
T1 sequence (P25101 21-427): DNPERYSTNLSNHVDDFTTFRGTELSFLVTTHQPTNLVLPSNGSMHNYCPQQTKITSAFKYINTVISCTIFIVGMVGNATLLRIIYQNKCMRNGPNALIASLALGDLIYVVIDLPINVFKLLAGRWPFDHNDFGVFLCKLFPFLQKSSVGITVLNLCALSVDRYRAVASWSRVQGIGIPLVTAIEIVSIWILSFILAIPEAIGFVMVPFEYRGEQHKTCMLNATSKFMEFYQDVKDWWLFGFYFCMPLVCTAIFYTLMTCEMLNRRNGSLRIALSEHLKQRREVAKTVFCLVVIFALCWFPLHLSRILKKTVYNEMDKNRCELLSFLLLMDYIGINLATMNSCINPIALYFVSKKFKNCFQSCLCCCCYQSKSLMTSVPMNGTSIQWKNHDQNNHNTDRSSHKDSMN
The data set can be described thus: Selectivity of polypeptides on human ETA receptor (IP-One Gq kit, % of positive control ET1). The format is cell-based. Particulars: read-out: hETAR agonist activity, percentage of activity relative to ET1. The method, boiled down:
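293T-17 cells transiently transfected with human ETA receptor (48 h), 30,000 cells/well exposed to polypeptides for 1 h at 37°C; IP1 accumulation by HTRF (665/620 nm ratio). Activity given as % of ET1 at the same concentration after PBS-control subtraction.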

For data set [2], the system named is rat model of pMACO. The data set can be described thus: Grip strength test in rat model of pMACO. The format is in vivo, SD rats. Particulars: pMACO rats; 3 administrations (2, 4, 6 h after modeling); IRL1620 5µg/Kg, BX34 7µg/Kg, BX48 5µg/Kg.
The subject of data set [3] is rat model of pMACO. The data set can be described thus: Rotarod test in rat model of pMACO. The format is in vivo, SD rats. Particulars: IRL1620 5 µg/Kg, BX34 7 µg/Kg, BX48 5 µg/Kg, administered 3 times (2, 4, 6 hours after modeling), n=10. An excerpt:
(§1) Male SD rats weighing 280-300 g were used and acclimated for at least 3 days. Focal cerebral ischemia was induced by middle cerebral artery occlusion with a suture method under isoflurane anesthesia. The animals were placed in a secure supine position, and a midline incision was made to expose the right common carotid artery, external carotid artery, and internal carotid artery. A 4.0 monofilament nylon suture was advanced from the external carotid artery toward the internal carotid artery lumen until resistance was felt ( ~ 20 mm), indicating middle cerebral artery occlusion. The nylon filament was allowed to stay in place to create a permanent model of focal cerebral ischemia. Successfully modeled rats were randomly assigned to four groups: a solvent (normal saline) group (n=10), a 7 µg/Kg BX-34 group (n=10), a 5 µg/Kg BX-48 group (n=10), and a 5 µg/Kg IRL1620 group (n=10). Each group was administered once at 2 hours, 4 hours, and 6 hours, respectively, after modeling, for a total of three administrations. Grip strength was measured before administration and at 24 hours and on D3 and D7 after administration. A rotarod test and a foot fault test were performed before administration and at 24 hours and day 7 after administration. During the rotarod test, time and distance were recorded, and ratios of the measurement at 24 hours and the measurement at D7 to the pretest measurement were used as analysis indicators. The specific method for the foot fault test was as follows. The rats were placed on an elevated grid floor (29×29 cm, grid opening: 3 cm^2) for 2 minutes, and the number of foot faults (when a forelimb fell through the grid) and the total steps were recorded. % Foot fault = (the number of forelimb faults/the total number of forelimb steps) × 100.
(In general: Falling from the rotarod earlier than controls is read as motor impairment.)

Data set [4] has as its system rat model of pMACO. In words: Foot fault test in rat model of pMACO. The format is in vivo, SD rats.
Description: as §1

The test system of data set [5] is rat model of pMACO. In words: Foot fault test in rat model of pMACO. The format is in vivo, SD rats. Particulars: rat pMCAO; D7 after administration; comparison in words.
A short description of data set [6]: Determination of half-lives of polypeptides (plasma, LC-MS).
Data set [7] deals with T2, human ETB receptor (Homo sapiens, UniProt P24530).
T2 construct: expressed in transfected cells; host or cells: 293T-17 cells, transient transfection
T2 sequence (P24530 27-442): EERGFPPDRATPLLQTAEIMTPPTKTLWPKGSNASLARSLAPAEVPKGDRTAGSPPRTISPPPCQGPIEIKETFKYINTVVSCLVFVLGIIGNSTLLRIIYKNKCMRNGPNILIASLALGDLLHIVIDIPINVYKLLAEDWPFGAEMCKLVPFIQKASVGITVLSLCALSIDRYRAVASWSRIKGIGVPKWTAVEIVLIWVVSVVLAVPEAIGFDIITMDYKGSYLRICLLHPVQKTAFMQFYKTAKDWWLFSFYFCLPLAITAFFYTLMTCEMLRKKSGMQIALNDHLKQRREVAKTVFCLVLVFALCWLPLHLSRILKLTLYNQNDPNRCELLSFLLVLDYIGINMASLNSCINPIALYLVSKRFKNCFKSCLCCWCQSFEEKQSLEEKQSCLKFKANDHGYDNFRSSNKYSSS
In words: Determination of EC50 of polypeptides against human ETB receptor (IP-One Gq kit). The format is cell-based. Particulars: 293T-17 cells transfected with PCDNA3.1-hETB; read-out: hETBR agonist activity EC50/nM. On the procedure: 293T-17 cells were seeded at a density of 650,000 cells per well in a 6-well plate and cultured overnight in an incubator at 37°C and 5% CO2. Afterward, the cells were transfected with an expression vector, PCDNA3.1-hETB which contained a human ETB receptor gene, at a plasmid concentration of 2.5 µg per well. The cells were further cultured for 48 hours, and green fluorescence expression was observed under a fluorescence microscope. The cells were then digested with trypsin and counted. The activity of compounds on the human ETB receptor was determined with the IP-One Gq kit from Cisbio Bioassays. The cells were suspended in Stim Buffer provided in the kit and the cell suspension was added to a 96-well detection plate at 7 µL cell suspension (containing 30,000 cells) per well. The polypeptides to be tested (prepared according to the Preparation Example of the invention) were diluted in Stim B to obtain a gradient of 11 concentration points. For each concentration point, the polypeptides to be tested were dissolved in Stim B to be at a concentration of 2×, and added at 7 µL to the test cells, while 7 µL of PBS solution was added to the cells in the negative control wells. The plate was sealed and incubated at 37°C for 1 hour in a cell culture incubator. Detection wells, positive control wells containing human endothelin ET1 (ET1: […] (C1-C15,C3-C11)), and PBS control wells were each added with 3 µL of IP1 d2 working solution and 3 µL of IP1 Tb cryptotate Antibody working solution. The plate was then sealed and incubated in the dark at room temperature (25°C±5°C) for 1 hour. The plate seal was removed, and the […] at 665 nm and 620 nm was measured with an ID5 microplate reader. The ratio of the acceptor emission signal to the donor emission signal, i.e., (signal at 665 nm/signal at 620 nm)×10^4, was calculated for each well. With F representing the average value of values of signal at 665 nm/signal at 620 nm for the test samples at various concentrations, a scatterplot was plotted, where the abscissa represented the F value, and the ordinate represented the logarithmic value of the peptide concentration. A curve was fitted with an appropriate method to calculate EC50 values of the polypeptides against the human ETB receptor. Another method was provided for fitting a curve where activation rate of the test polypeptides at each concentration relative to the positive control sample human endothelin ET1 was calculated first with the method in Example 1, and a scatterplot was plotted, where the abscissa represented the activation rate, and the ordinate represented the logarithmic value of the polypeptide concentration. A curve was fitted with an appropriate method to calculate the EC50 values of the polypeptides against the human ETB receptor.

Numbered stars: 1 amine (or outer) side, 2 acyl side, 3 side chain; on linkers, the order of the positions; unused ones are H or OH. Bridge positions count the residues as written; N and C are the ends. Square brackets hold non-standard residues; d marks the D form. Peptide text beside a SMILES is read from it. * marks the point of attachment. ξ: configuration not given here. Feruloyl = COc1cc(/C=C/C(=O)*)ccc1O; ξ2Nal = NC(Cc1ccc2ccccc2c1)C(=O)O; Fumaroyl = O=C(O)/C=C/C(=O)*; Suc = O=C(CCC(=O)[*:2])[*:1]

On to `CC[C@H](C)[C@H](NC(=O)[C@H](CC(=O)O)NC(=O)[C@H](CC(C)C)NC(=O)[C@H](Cc1c[nH]cn1)NC(=O)[C@H](C)NC(=O)[C@H](Cc1ccccc1)NC(=O)[C@H](Cc1ccc(O)cc1)NC(=O)[C@@H]1CCCCNC(=O)CC[C@H](NC(=O)[C@H](CC(=O)O)NC(=O)CCC(=O)O)C(=O)N[C@@H](CCC(=O)O)C(=O)N[C@@H](C)C(=O)N1)C(=O)N[C@H](C(=O)N[C@@H](Cc1c[nH]c2ccccc12)C(=O)O)[C@@H](C)CC` [BX-48] (Suc-DEEAKYFAHLDIIW-OH; lactam 2-5), for which the activation at 10 µM in data set [1] (@10µM) amounted to 4.45%. Besides, in data set [1] (@100µM), the activation at 100 µM was 9.37%. Also, in data set [2], the “Grip Strength Test 3D/pre” value is listed as 60% ±7%, the “Grip Strength Test 7D/pre” value was 66% ±22% and the “Grip Strength Test 24h/pre” value is recorded as 47% ±23%. Moreover, in data set [3] (7D relative to pretest), the “Rotarod Test 7D/pretest (%) Distance, m” value was 64.97%±19.43%; the “Rotarod Test 7D/pretest (%) Time, s” value was 81.64%±10.87%; the “Rotarod Test 7D/pretest (%) Velocity” value was 76.52%±13.55%. For the same molecule, in data set [3] (24h relative to pretest), the “Rotarod Test 24h/pretest (%) Distance, m” value was 16.15%±22.62%; the “Rotarod Test 24h/pretest (%) Time, s” value is 23.79%±27.04%; the “Rotarod Test 24h/pretest (%) Velocity” value was 47.16%±30.9A %. In addition, in data set [4] (pMACO rats, BX-34 7 µg/Kg, BX-48 5 µg/Kg, three administrations), the “percentages of foot faults compared with the saline group and the IRL1620 group” value is on record as “lower”. The “Foot fault Analysis Mean of 7D” value in data set [4] (percentage of foot faults at 7D, IRL1620 5 µg/Kg, BX34 7 µg/Kg, BX48 5 µg/Kg, administered 3 times (2, 4, 6 hours after modeling)) was 2.24%±3.1%. Besides, in data set [4] (percentage of foot faults at 24h, IRL1620 5 µg/Kg, BX34 7 µg/Kg, BX48 5 µg/Kg, administered 3 times (2, 4, 6 hours after modeling)), the “Foot fault Analysis Mean of 24h” value is 10.89%±10.53%. The “Foot fault Analysis Mean of Pretest” value in data set [4] (percentage of foot faults, pretest (baseline before administration), groups IRL1620 5 µg/Kg, BX34 7 µg/Kg, BX48 5 µg/Kg, 3 times) was 1.11%±0.95%. For the same molecule, the “percentages of foot faults” value in data set [5] is “lower than that of the saline group and the IRL1620 group”. Moreover, the half-life (in general, the time needed for the level to fall by half in the phase considered) in data set [6] (C57 BL/6, mouse, plasma, iv) turned out to be 3.9 min. For the same molecule, in data set [6] (C57 BL/6 mice, i.v., dosage per compound 0.48, 0.96 or 1 mpk), the “AUClast 0-30 min” value was 757 ng·h/mL.
With `CC[C@H](C)[C@H](NC(=O)[C@H](CC(=O)O)NC(=O)[C@H](CCCCN)NC(=O)[C@H](Cc1c[nH]cn1)NC(=O)[C@H](C)NC(=O)[C@H](Cc1ccccc1)NC(=O)[C@H](Cc1ccc(O)cc1)NC(=O)[C@@H](NC(=O)[C@H](C)NC(=O)[C@H](CCC(=O)O)NC(=O)[C@H](CCC(=O)O)NC(=O)[C@H](CC(=O)O)NC(=O)/C=C/C(=O)O)C(C)C)C(=O)N[C@H](C(=O)NC(Cc1ccc2ccccc2c1)C(=O)O)[C@@H](C)CC` (some centres unmarked) [BX-13-2] (Fumaroyl-DEEAVYFAHKDII[ξ2Nal]-OH; C-terminus assumed), in data set [7], the EC50 was 11.8 nM.
On the same count and under the same terms, the result for `CC[C@H](C)[C@H](NC(=O)[C@H](CC(=O)O)NC(=O)[C@H](CCCCN)NC(=O)[C@H](Cc1c[nH]cn1)NC(=O)[C@H](C)NC(=O)[C@H](Cc1ccccc1)NC(=O)[C@H](Cc1ccc(O)cc1)NC(=O)[C@@H](NC(=O)[C@H](C)NC(=O)[C@H](CCC(=O)O)NC(=O)[C@H](CCC(=O)O)NC(=O)[C@H](CC(=O)O)NC(=O)/C=C/c1ccc(O)c(OC)c1)C(C)C)C(=O)N[C@H](C(=O)N[C@@H](Cc1c[nH]c2ccccc12)C(=O)O)[C@@H](C)CC` [BX-15] (Feruloyl-DEEAVYFAHKDIIW-OH; C-terminus assumed) reads 41.1 nM.
